Laboratory results from patent publication US20220175682A1, “Siremadlin Succinate” (Novartis AG, priority 2019, published 2022).

Legend:
Format in all cases: physicochemical
[1] = FT4 powder rheometer powder characterization (8-parameter model); parameters: MPS-15: unit not given here; settings: for sBFE (Specific Basic Flow Energy): FT4, Group 1, 25 mm_1C_Split_Rep+VFR_R01; for sBFE (Specific Basic Flow Energy) / SI (Stability Index) / MPS-15 (major Principal Stress @ 15 kPa) / FF-15 (Flow function @ 15 kPa) / CBD-15 (Consolidated Bulk Density @ 15 kPa) / CPS (Compressibility) / WFA (Wall Friction Angle): reference powders; for SI (Stability Index) / SI / sBFE: FT4, Group 1; for SI (Stability Index) / FF-15 (Flow function @ 15 kPa): dimensionless; for MPS-15 (major Principal Stress @ 15 kPa): FT4, Group 2, 25 mm_Shear_15 kPa; for FF-15 (Flow function @ 15 kPa) / CBD-15 (Consolidated Bulk Density @ 15 kPa): FT4, Group 2, shear cell; for CPS (Compressibility): FT4, Group 3, 25 mm_Compressibility_1-15 kPa; for WFA (Wall Friction Angle): FT4, Group 4, 25 mm_Wall Friction_30 kPa; for SI / sBFE / CBD-15 / FF-15 / MPS-15 / CPS / WFA: HDM201-BBA batches; for CBD-15 / FF-15 / MPS-15: FT4, Group 2; for CPS: FT4, Group 3; for WFA: FT4, Group 4
Method: A standard FT4 powder rheometer offers at least 6 powder characterization methods (per measurement cylinder diameter). Those selected for analysis are
25 mm_1C_Split_Rep+VFR_R01;
25 mm_Compressibility_1-15 kPa;
25 mm_Wall Friction_30 kPa.
Each characterization method produces several kind of response parameters (default or manually selectable). A set of complete powder characterizations (at least 22 response parameters per row) were measured for more than 350 different powders and more than 60 different compounds using a standard FT4 powder rheometer and compiled in a database. The various parameters were correlated to the respective filling behavior in order to determine a set of parameters and parameter ranges which is capable of distinguishing and predicting filling behavior of powders.
sBFE: Specific Basic Flow Energy (mJ/g): obtained from BFE (obtained from standard FT4 test platform) divided by the split mass of the sample.
SI: Stability Index, standard variable, dimensionless.
SE: Specific Energy (mJ/g), standard variable
MPS @ 15 kPa: major Principal Stress, standard variable
FF @ 15 kPa: Flow function (dimensionless), from shear cell, standard variable
CBD @ 15 kPa: Consolidated Bulk Density (g/mL), standard variable (from shear cell)
CPS: Compressibility (%), standard variable
WFA: Wall Friction Angle (degree°), standard variable.

[2] = Particle size distribution by laser light diffraction (LLD); settings: laser light diffraction, pin-milled HDM201-BBA batches
From the text: Values are given in micrometer, measurements done by laser light diffraction (LLD).

[3] = Crystal/particle shape, size and bulk density of reference API powders
From the text: NBU928 is a fumarate salt with a challenging crystallization process. The resulting particles typically have an elongated aspect ratio, crystals are lath shaped up to 400 μm long with strong agglomeration tendency. Such kind of crystal shape give a resulting powder bulk which is not directly processable in any capsule filler equipment. Therefore the API powder was subjected to a Particle Engineering treatment to selectively grow the shot side of the crystal then it was milled down through a pin mill equipment obtaining a quite regular fragmentation, leading to smaller particles with more steady aspect ratio, free of agglomeration, with an average diameter (X50) of about 25 μm.
CDZ173 is a mono-phosphate salt compound. It is characterized by needle shaped crystals with aspect ratio >10, agglomerated/fused rod-like crystals, very low bulk density (always <0.2 g/mL, very often <0.12 g/mL). It is here reported in two different variants (milled and un-milled).

For CN(C)C(=O)c1cc2cnc(Nc3ccc(N4CCNCC4)cn3)nc2n1C1CCCC1 [1. LEE011, reference compound], the “sBFE (Specific Basic Flow Energy)” value [1] was 38 mJ/g, the “SI (Stability Index)” value [1] was 0.9 and the MPS-15 (major Principal Stress @ 15 kPa) [1] was 42 kPa. The “FF-15 (Flow function @ 15 kPa)” value [1] was 5.8, the “CBD-15 (Consolidated Bulk Density @ 15 kPa)” value [1] was 0.6 g/mL and the “CPS (Compressibility)” value [1] was 26%. For the same compound, the “WFA (Wall Friction Angle)” value [1] was 40 °.
For OC[C@H]1O[C@@H](O[C@H]2[C@H](O)[C@@H](O)[C@@H](O)O[C@@H]2CO)[C@H](O)[C@@H](O)[C@H]1O [4. Lactose 125M, reference compound], the “sBFE (Specific Basic Flow Energy)” value [1] was 16 mJ/g, the “CPS (Compressibility)” value [1] was 13% and the “WFA (Wall Friction Angle)” value [1] was 27 °.
With CC1(N)CCN(c2cccnc2NC(=O)c2nc(-c3ncccc3C(F)(F)F)cnc2N)CC1 [5. LXS196, reference compound] the “sBFE (Specific Basic Flow Energy)” value [1] was 26 mJ/g, the “SI (Stability Index)” value [1] was 1.1 and the MPS-15 (major Principal Stress @ 15 kPa) [1] was 27 kPa. The “FF-15 (Flow function @ 15 kPa)” value [1] was 15, the “CBD-15 (Consolidated Bulk Density @ 15 kPa)” value [1] was 0.7 g/mL and the “CPS (Compressibility)” value [1] was 11%. For the same compound, the “WFA (Wall Friction Angle)” value [1] was 29 °.
For CCC(=O)N1CC[C@H](Nc2ncnc3c2CN(c2cnc(OC)c(C(F)(F)F)c2)CC3)C1 [6. CDZ173, reference compound], the “sBFE (Specific Basic Flow Energy)” value [1] was 29 mJ/g, the “SI (Stability Index)” value [1] was 1.5 and the MPS-15 (major Principal Stress @ 15 kPa) [1] was 50 kPa. For the same compound, the “FF-15 (Flow function @ 15 kPa)” value [1] was 1.4, the “CBD-15 (Consolidated Bulk Density @ 15 kPa)” value [1] was 0.26 g/mL and the “CPS (Compressibility)” value [1] was 43%. For the same compound, the “WFA (Wall Friction Angle)” value [1] was 50 °.
In the case of CCC(=O)N1CC[C@H](Nc2ncnc3c2CN(c2cnc(OC)c(C(F)(F)F)c2)CC3)C1 [7. CDZ173, reference compound], the “sBFE (Specific Basic Flow Energy)” value [1] was 82 mJ/g, the “SI (Stability Index)” value [1] was 1.1 and the MPS-15 (major Principal Stress @ 15 kPa) [1] was 9.6 kPa. For the same compound, the “FF-15 (Flow function @ 15 kPa)” value [1] was 5, the “CBD-15 (Consolidated Bulk Density @ 15 kPa)” value [1] was 0.2 g/mL and the “CPS (Compressibility)” value [1] was 56%. For the same compound, the “WFA (Wall Friction Angle)” value [1] was 37 °.
With COc1ncc(-c2nc3c(n2C(C)C)[C@H](c2ccc(Cl)cc2)N(c2cc(Cl)cn(C)c2=O)C3=O)c(OC)n1.O=C(O)CCC(=O)O [Batch A1] the X10 ([2]; listed as A1) was 1 micrometer, the X50 ([2]; listed as A1) was 5 micrometer and the X90 ([2]; listed as A1) was 14 micrometer. The SI ([1]; listed as A1) was 1.07, the sBFE ([1]; listed as A1) was 6 mJ/g and the CBD-15 ([1]; listed as A1) was 0.53 g/mL. The FF-15 ([1]; listed as A1) was 2.5, the MPS-15 ([1]; listed as A1) was 32 and the CPS ([1]; listed as A1) was 43%. For the same compound, the WFA ([1]; listed as A1) was 35 °.
Work on COc1ncc(-c2nc3c(n2C(C)C)[C@H](c2ccc(Cl)cc2)N(c2cc(Cl)cn(C)c2=O)C3=O)c(OC)n1.O=C(O)CCC(=O)O [Batch A2] yielded an X10 ([2]; listed as A2) of 4 micrometer, an X50 ([2]; listed as A2) of 28 micrometer and an X90 ([2]; listed as A2) of 60 micrometer. The SI ([1]; listed as A2) was 1.11, the sBFE ([1]; listed as A2) was 9 mJ/g and the CBD-15 ([1]; listed as A2) was 0.68 g/mL. It also gave an FF-15 ([1]; listed as A2) of 5.5, an MPS-15 ([1]; listed as A2) of 29 and a CPS ([1]; listed as A2) of 32%. It also gave a WFA ([1]; listed as A2) of 34 °.
With COc1ncc(-c2nc3c(n2C(C)C)[C@H](c2ccc(Cl)cc2)N(c2cc(Cl)cn(C)c2=O)C3=O)c(OC)n1.O=C(O)CCC(=O)O [Batch A3] the X10 ([2]; listed as A3) was 9 micrometer, the X50 ([2]; listed as A3) was 45 micrometer and the X90 ([2]; listed as A3) was 95 micrometer. It also gave an SI ([1]; listed as A3) of 1.12, a sBFE ([1]; listed as A3) of 20 mJ/g and a CBD-15 ([1]; listed as A3) of 0.69 g/mL. For the same compound, the FF-15 ([1]; listed as A3) was 9.4, the MPS-15 ([1]; listed as A3) was 29 and the CPS ([1]; listed as A3) was 15%. It also gave a WFA ([1]; listed as A3) of 34 °.
COc1ncc(-c2nc3c(n2C(C)C)[C@H](c2ccc(Cl)cc2)N(c2cc(Cl)cn(C)c2=O)C3=O)c(OC)n1.O=C(O)CCC(=O)O [Batch B1] gave an X10 ([2]; listed as B1) of 3 micrometer, an X50 ([2]; listed as B1) of 16 micrometer and an X90 ([2]; listed as B1) of 50 micrometer. For the same compound, the SI ([1]; listed as B1) was 1.14, the sBFE ([1]; listed as B1) was 6 mJ/g and the CBD-15 ([1]; listed as B1) was 0.64 g/mL. It also gave an FF-15 ([1]; listed as B1) of 3.8, an MPS-15 ([1]; listed as B1) of 29 and a CPS ([1]; listed as B1) of 31%. For the same compound, the WFA ([1]; listed as B1) was 34 °.
In the case of COc1ncc(-c2nc3c(n2C(C)C)[C@H](c2ccc(Cl)cc2)N(c2cc(Cl)cn(C)c2=O)C3=O)c(OC)n1.O=C(O)CCC(=O)O [Batch B2], the X10 ([2]; listed as B2) was 4 micrometer, the X50 ([2]; listed as B2) was 21 micrometer and the X90 ([2]; listed as B2) was 71 micrometer. It also gave an SI ([1]; listed as B2) of 1.01, a sBFE ([1]; listed as B2) of 8 mJ/g and a CBD-15 ([1]; listed as B2) of 0.65 g/mL. For the same compound, the FF-15 ([1]; listed as B2) was 3.8, the MPS-15 ([1]; listed as B2) was 28 and the CPS ([1]; listed as B2) was 38%. For the same compound, the WFA ([1]; listed as B2) was 35 °.
In the case of COc1ncc(-c2nc3c(n2C(C)C)[C@H](c2ccc(Cl)cc2)N(c2cc(Cl)cn(C)c2=O)C3=O)c(OC)n1.O=C(O)CCC(=O)O [Batch B3], the X10 ([2]; listed as B3) was 5 micrometer, the X50 ([2]; listed as B3) was 26 micrometer and the X90 ([2]; listed as B3) was 87 micrometer. For the same compound, the SI ([1]; listed as B3) was 1.11, the sBFE ([1]; listed as B3) was 9 mJ/g and the CBD-15 ([1]; listed as B3) was 0.70 g/mL. The FF-15 ([1]; listed as B3) was 5.3, the MPS-15 ([1]; listed as B3) was 29 and the CPS ([1]; listed as B3) was 26%. The WFA ([1]; listed as B3) was 35 °.
Compound COc1ncc(-c2nc3c(n2C(C)C)[C@H](c2ccc(Cl)cc2)N(c2cc(Cl)cn(C)c2=O)C3=O)c(OC)n1.O=C(O)CCC(=O)O [Batch C1] has an X10 ([2]; listed as C1) of 21 micrometer, an X50 ([2]; listed as C1) of 69 micrometer and an X90 ([2]; listed as C1) of 163 micrometer. For the same compound, the SI ([1]; listed as C1) was 1.15, the sBFE ([1]; listed as C1) was 33 mJ/g and the CBD-15 ([1]; listed as C1) was 0.68 g/mL. For the same compound, the FF-15 ([1]; listed as C1) was 9.0, the MPS-15 ([1]; listed as C1) was 31 and the CPS ([1]; listed as C1) was 14%. For the same compound, the WFA ([1]; listed as C1) was 34 °.
COc1ncc(-c2nc3c(n2C(C)C)[C@H](c2ccc(Cl)cc2)N(c2cc(Cl)cn(C)c2=O)C3=O)c(OC)n1.O=C(O)CCC(=O)O [Batch C2] showed an X10 ([2]; listed as C2) of 6 micrometer, an X50 ([2]; listed as C2) of 35 micrometer and an X90 ([2]; listed as C2) of 83 micrometer. The SI ([1]; listed as C2) was 1.01, the sBFE ([1]; listed as C2) was 12 mJ/g and the CBD-15 ([1]; listed as C2) was 0.70 g/mL. It also gave an FF-15 ([1]; listed as C2) of 6.4, an MPS-15 ([1]; listed as C2) of 29 and a CPS ([1]; listed as C2) of 25%. It also gave a WFA ([1]; listed as C2) of 35 °.
In the case of COc1ncc(-c2nc3c(n2C(C)C)[C@H](c2ccc(Cl)cc2)N(c2cc(Cl)cn(C)c2=O)C3=O)c(OC)n1.O=C(O)CCC(=O)O [Batch C3], the X10 ([2]; listed as C3) was 3 micrometer, the X50 ([2]; listed as C3) was 19 micrometer and the X90 ([2]; listed as C3) was 58 micrometer. For the same compound, the SI ([1]; listed as C3) was 1.03, the sBFE ([1]; listed as C3) was 8 mJ/g and the CBD-15 ([1]; listed as C3) was 0.62 g/mL. For the same compound, the FF-15 ([1]; listed as C3) was 3.7, the MPS-15 ([1]; listed as C3) was 29 and the CPS ([1]; listed as C3) was 36%.
For CCC(=O)N1CC[C@H](Nc2ncnc3c2CN(c2cnc(OC)c(C(F)(F)F)c2)CC3)C1.O=P(O)(O)O [CDZ173], the bulk density ([3]; always) was < 0.2 g/mL, the “aspect ratio of crystals” value ([3]; needle shaped crystals) was > 10 and the bulk density ([3]; very often) was < 0.12 g/mL.
